What is called ED50 is the dose that gives a 50% effect, or the effect in half of the subjects. For orientation: LD50 means the dose at which mortality reaches 50%.

The values that follow come from patent US4069331A, “N-(p-fluorobenzoyl-n-propyl)-4-piperidylamides and salts thereof” (Boehringer Ingelheim GmbH, priority 1974, dated 1978).

Molecules are shown by their SMILES.

The subject of data set [1] is adrenaline (epinephrine). Description: adrenaline-antagonistic activity (protection against a lethal dose of adrenaline). The note with it: mouse, oral, suspension in olive oil or gum arabic; 50% protection against lethal dose of adrenaline; read-out: Adrenaline-antagonism (ED50). In kind it is in vivo, Mouse (albino, NMRI). The procedure:
(§1) Those compounds of the formula I wherein R is methyl, ethyl and isopropyl and the structurally most closely related compound disclosed in the prior art, namely 1-[4-(4-fluorophenyl)-4-oxobutyl]-4-benzamidopiperidine disclosed in British patent specification No. 1,345,872, were tested for adrenaline-antagonistic activity, inhibition of locomotion, inhibition of exploration and toxicity by standard pharmacological test methods, and in each case the median effective dose (ED50) or the median lethal dose (LD50), respectively, were calculated graphically from dose-activity graphs. Albino mice (NMRI) having a body weight of 20-25 gm were used as the test animals, 10 animals per dose and untreated controls. The test compounds were administered orally in suspension in olive oil or gum arabic.
1. The adrenaline-antagonistic activity was determined by the method of P.A.J. Janssen et al, Arzneimittelforschung (Drug Research) 13, 203 (1963). […] The ED50 is the dose which produces a 50% protection against a lethal dose of adrenaline (epinephrine).

A short description of data set [2]: inhibition of exploration (Planche-a-Trous situation). Type of data set: in vivo, Mouse (albino, NMRI). The note with it: mouse, oral, suspension in olive oil or gum arabic; 50% decrease of exploration. On the procedure:
as §1
2. The inhibiting effect on exploration was determined by the method of J.R. Borssin et al, Therapie 19, 571 (1964). The ED50 is the dose which produces a 50% decrease of exploration in the Planche-a-Trous situation.

Data set [3] can be described thus: inhibition of locomotion (open field test). In kind it is in vivo, Mouse (albino, NMRI). The note with it: mouse, oral, suspension in olive oil or gum arabic; 50% attenuation of locomotion. On the procedure:
as §1
3. The inhibiting effect on locomotion was determined by the method of P.A.J. Janssen et al, Psychopharmacologia 1, 389 (1960). The ED50 is the dose which produces a 50% attenuation of locomotion in the open field test.

A short description of data set [4]: toxicity (24 hours observation). The note with it: in vivo, mouse, oral, suspension in olive oil or gum arabic. On the procedure:
as §1
4. The toxicity was determined over an observation period of 24 hours. The LD50 was calculated by the method J.T. Litchfield and F. Wilcoxon, J. Pharm. Exp. Ther. 96, 99 (1949).

In the case of `O=C(CCCN1CCC(NC(=O)c2ccccc2)CC1)c1ccc(F)cc1` [C6 H5, 1-[4-(4-fluorophenyl)-4-oxobutyl]-4-benzamidopiperidine, reference compound], the figures for the ED50 in data set [1], in data set [2] and in data set [3] were 3.3 mg/kg, 45 mg/kg and 135 mg/kg, respectively. Also, the LD50 at 24 h in data set [4] was found to be 300 mg/kg.

As to `CC(=O)NC1CCN(CCCC(=O)c2ccc(F)cc2)CC1` [Example 1], the figures for the ED50 in data set [1], in data set [2] and in data set [3] were 0.06 mg/kg, 8 mg/kg and 4 mg/kg, respectively. Also, the LD50 at 24 h in data set [4] stood at 1050 mg/kg.

With `CCC(=O)NC1CCN(CCCC(=O)c2ccc(F)cc2)CC1` [Example 2, N-[3'-(p-fluoro-benzoyl)-n-propyl]-4-(propionyl-amino) -piperidine], the ED50 came to 0.1 mg/kg in data set [1], 4.4 mg/kg in data set [2] and 6 mg/kg in data set [3]. For the same compound, the LD50 at 24 h in data set [4] was found to be 1160 mg/kg.

With `CC(C)C(=O)NC1CCN(CCCC(=O)c2ccc(F)cc2)CC1` [Example 4, N-[3'-(p-fluoro-benzoyl)-n-propyl]-4-(isobutyryl-amino) -piperidine], the ED50 is 0.58 mg/kg in data set [1], 9 mg/kg in data set [2] and 10 mg/kg in data set [3]. The same compound showed an LD50 at 24 h in data set [4] of 1850 mg/kg.
